Read-outs that look alike come from different tables or passages of the source.

The record followed here is patent US6617350B2, “Inhibitors of aspartyl protease” (priority 1999, dated 2003).

The target of one test is HIV-1 protease (Human immunodeficiency virus type 1 group M subtype B, UniProt P04585). The test is described as follows: biochemical.
In a further test the test system is HIV-1 (strain IIIB). Briefly: microbe, parasite or virus in culture. Conditions: anti-viral potency in MT-4 cells, read-out: IC50. It counts as cell-based.
The mark [1] stands for this setting: Table 12, HIV-1 protease, read-out: Ki.
Setting [2] is: Human immunodeficiency virus 1, IIIB, MT4, Table 12.

As for `CC(C)(CCC#N)CN(CC(O)C(Cc1ccccc1)NC(=O)OC1COC2OCCC12)S(=O)(=O)c1ccc2c(c1)OCCO2` (stereo not drawn) [Compound 41], on HIV-1 protease (setting [1]), the Ki was less than 1 nM. In addition, the IC50 with HIV-1 (strain IIIB) (Table 12) was no more than 100 nM.
As to `CC(C)(CCC#N)CN(C[C@@H](O)[C@H](Cc1ccccc1)NC(=O)OC1COCOC1)S(=O)(=O)c1ccc(O)cc1` [Compound 42, {(1S,2R)-1-Benzyl-3-[(4-cyano-2,2-dimethyl-butyl)-(4-hydroxybenzenesulfonyl)-amino]-2-hydroxy-propyl}-carbamic acid[1,3]dioxan-5-yl ester], the Ki on HIV-1 protease (setting [1]) was less than 1 nM. Besides, the IC50 in the test with HIV-1 (strain IIIB) (setting [2]) is 100 to 500 nM.
As to `CCN(C(=O)OC(C)(C)C)c1cccc(S(=O)(=O)N(CC(O)C(Cc2ccccc2)NC(=O)OC2COC3OCCC23)CC(C)(C)CCC#N)c1` [Compound 43, {(1S,2R)-3-[(3-N-tert-butoxycarbonyl-N-ethylaminophenyl)sulfonyl]-(4-cyano-2,2-dimethyl-butyl)-amino]-1-benzyl-2-hydroxy-propyl}-carbamic acid (3R,3aS,6aR)hexahydro-furo[2,3-b]furan-3-yl ester], the inhibitory constant (Ki) on HIV-1 protease (setting [1]) was less than 1 nM. In the test on HIV-1 (strain IIIB) (setting [2]), the IC50 fell in the range of 100 to 500 nM.
On to `COc1ccc(S(=O)(=O)N(C=C(C#N)C#N)C[C@@H](O)[C@H](Cc2ccccc2)NC(=O)OC(C)(C)C)cc1` [Compound 113], for which the Ki at HIV-1 protease (setting [1]) lay in the range of 10 to 100 nM. Also, in the test on HIV-1 (strain IIIB) (setting [2]), the IC50 is 500 to 1000 nM.
As to `COc1ccc(S(=O)(=O)N(CCC#N)C[C@@H](O)[C@H](Cc2ccccc2)NC(=O)O[C@H]2CO[C@H]3OCC[C@H]32)cc1` [Compound 124, {(1S,2R)-3-[(4-methoxybenzenesulfonyl)-(2-cyanoethyl)-amino]-1-benzyl-2-hydroxy-propyl}-carbamic acid (3R,3aS,6aR)hexahydro-furo[2,3-b]furan-3-yl ester], the Ki at HIV-1 protease (setting [1]) was less than 1 nM. Also, the IC50 in the test on HIV-1 (strain IIIB) (setting [2]) is no more than 100 nM.
Regarding `COc1ccc(S(=O)(=O)N(CCC#N)C[C@@H](O)[C@H](Cc2ccccc2)NC(=O)OC2COCOC2)cc1` [Compound 125], at HIV-1 protease (setting [1]), the Ki is less than 1 nM. In addition, in the test on HIV-1 (strain IIIB) (setting [2]), the IC50 is greater than 1000 nM.
In the case of `COc1ccc(S(=O)(=O)N(CCCCC2(C)OCCO2)C[C@@H](O)[C@H](Cc2ccccc2)NC(=O)OC(C)(C)C)cc1` [Compound 201, tert-Butyl N-((1S,2R)-1-benzyl-2-hydroxy-3-[(4-methoxyphenyl)sulfonyl][4-(2-methyl-1,3-dioxolan-2-yl)butyl]aminopropyl)carbamate], at HIV-1 protease (setting [1]), the Ki lay within 1 to 10 nM. Moreover, in the test with HIV-1 (strain IIIB) (setting [2]), the IC50 was greater than 1000 nM.
With `COc1ccc(S(=O)(=O)N(CCCCC2(C)OCCO2)C[C@@H](O)[C@H](Cc2ccccc2)NC(=O)OC(C)(C)C)cc1` [Compound 204, tert-Butyl N-((1S,2R)-1-benzyl-2-hydroxy-3-[(4-methoxyphenyl)sulfonyl][4-(2-methyl-1,3-dioxolan-2-yl)butyl]aminopropyl)carbamate], the Ki at HIV-1 protease (setting [1]) was in the range of 1 to 10 nM. In the test on HIV-1 (strain IIIB) (Table 12), the IC50 is 500 to 1000 nM.
As to `COc1ccc(S(=O)(=O)N(CCCCC(C)=O)C[C@@H](O)[C@H](Cc2ccccc2)NC(=O)O[C@H]2CCOC2)cc1` [Compound 205, (3S)-Tetrahydro-3-furanyl N-(1S,2R)-1-benzyl-2-hydroxy-3-[[(4-methoxyphenyl)sulfonyl](5-oxohexyl)amino]-propylcarbamate], on HIV-1 protease (setting [1]), the Ki was less than 1 nM. The IC50 in the test with HIV-1 (strain IIIB) (setting [2]) lay in the range of 500 to 1000 nM.
Consider `CCC(CCC(C)=O)CN(CC(O)[C@H](Cc1ccccc1)NC(=O)OC1CCOC1)S(=O)(=O)c1ccc(OC)cc1` (stereo partly drawn) [Compound 206, (3S)-Tetrahydro-3-furanyl N-((1S,2R)-1-benzyl-3-(2-ethyl-5-oxohexyl)[(4-methoxyphenyl)sulfonyl]amino-2-hydroxypropyl)carbamate], for which the Ki at HIV-1 protease (setting [1]) was less than 1 nM. For the same molecule, the IC50 with HIV-1 (strain IIIB) (setting [2]) is no more than 100 nM.
For the molecule `COc1ccc(S(=O)(=O)N(CC(C)CCC(C)=O)CC(O)[C@H](Cc2ccccc2)NC(=O)OC2CCOC2)cc1` (stereo partly drawn) [Compound 207, (3S)-Tetrahydro-3-furanyl N-(1S, 2R)-1-benzyl-2-hydroxy-3-[[(4-methoxyphenyl)sulfonyl](2-methyl-5-oxohexyl)amino]propylcarbamate], the Ki at HIV-1 protease (setting [1]) was less than 1 nM. Further, in the test on HIV-1 (strain IIIB) (setting [2]), the concentration for half-maximal inhibition (IC50) was no more than 100 nM.
In the case of `COc1ccc(S(=O)(=O)N(C[C@@H](O)[C@H](Cc2ccccc2)NC(=O)O[C@H]2CCOC2)CC(C)(C)CCC(C)=O)cc1` [Compound 208, (3S)-Tetrahydro-3-furanyl N-((1S,2R)-1-benzyl-3-(2-,2-dimethyl-5-oxohexyl)[(4-methoxyphenyl)sulfonyl]amino-2-hydroxypropyl)carbamate], the Ki at HIV-1 protease (setting [1]) was less than 1 nM. In the test on HIV-1 (strain IIIB) (setting [2]), the IC50 is 100 to 500 nM.
Turning to `COc1ccc(S(=O)(=O)N(C[C@@H](O)[C@H](Cc2ccccc2)NC(=O)O[C@H]2CCOC2)CC(C)(C)CCCC(C)=O)cc1` [Compound 209], on HIV-1 protease (setting [1]), the Ki was less than 1 nM. Further, the IC50 in the test on HIV-1 (strain IIIB) (setting [2]) is 100 to 500 nM.
Turning to `COC(=O)NCCCC(C)(C)CN(CC(O)C(Cc1ccccc1)NC(=O)OC1COC2OCCC12)S(=O)(=O)c1ccc(OC)cc1` [Compound 213, (3R,3aS,6aR)hexahydrofuro[2,3-b]furan-3-yl N-((1S,2R)-1-benzyl-2-hydroxy-3-5-[(methoxycarbonyl)amino]-2,2-dimethylpentyl[(4-methoxyphenyl)sulfonyl]aminopropyl)carbamate and (3S,3aR,6aS)hexahydrofuro[2,3-b]furan-3-yl N-((1S,2R)-1-benzyl-2-hydroxy-3-5-[(methoxycarbonyl)amino]-2,2-dimethylpentyl[(4-methoxyphenyl)sulfonyl]aminopropyl)carbamate], on HIV-1 protease (setting [1]), the Ki was less than 1 nM. Moreover, the IC50 in the test on HIV-1 (strain IIIB) (setting [2]) was no more than 100 nM.
For `COc1ccc(S(=O)(=O)N(CC(O)C(Cc2ccccc2)NC(=O)OC2COC3OCCC23)CC(C)(C)CCCNS(C)(=O)=O)cc1` [Compound 215, (3R,3aS,6aR)hexahydrofuro[2,3-b]furan-3-yl N-((1S,2R)-1-benzyl-3-2,2-dimethyl-5-[(methylsulfonyl)amino]pentyl[(4-methoxyphenyl)sulfonyl]amino-2-hydroxypropyl)carbamate and (3S,3aR, 6aS)hexahydrofuro[2,3-b]furan-3-yl N-((1s,2R)-1-benzyl-3-2,2-dimethyl-5-[(methylsulfonyl)amino]pentyl[(4-methoxyphenyl)sulfonyl]amino-2-hydroxypropyl)carbamate] the same measures were less than 1 nM and no more than 100 nM.
With `COC(=O)NCCC(C)(C)CN(CC(O)C(Cc1ccccc1)NC(=O)OC1COC2OCCC12)S(=O)(=O)c1ccc(OC)cc1` [Compound 218, (3R,3aS,6aR)hexahydrofuro[2,3-b]furan-3-yl N-((1S,2R)-1-benzyl-2-hydroxy-3-4-[(methoxycarbonyl)amino]-2,2-dimethylbutyl[(4-methoxyphenyl)sulfonyl]aminopropyl)carbamate and (3S,3aR,6aS)hexahydrofuro[2,3-b]furan-3-yl N-((1S,2R)-1-benzyl-2-hydroxy-3-4-[(methoxycarbonyl)amino]-2,2-dimethylbutyl[(4-methoxyphenyl)sulfonyl]aminopropyl)carbamate], the Ki at HIV-1 protease (setting [1]) was less than 1 nM. Besides, the IC50 in the test on HIV-1 (strain IIIB) (setting [2]) is no more than 100 nM.
The molecule `COc1ccc(S(=O)(=O)N(CC(O)C(Cc2ccccc2)NC(=O)OC2COC3OCCC23)CC(C)(C)CCNS(C)(=O)=O)cc1` [Compound 220, (3R,3aS,6aR)hexahydrofuro[2,3-b]furan-3-yl N-((1S,2R)-1-benzyl-3-2,2-dimethyl-4-[(methylsulfonyl)amino]butyl[(4-methoxyphenyl)sulfonyl]amino-2-hydroxypropyl)carbamate and (3S,3aR,6aS)hexahydrofuro[2,3-b]furan-3-yl N-((1S,2R)-1-benzyl-3-2,2-dimethyl-4-[(methylsulfonyl)amino]butyl[(4-methoxyphenyl)sulfonyl]amino-2-hydroxypropyl)carbamate] showed a Ki at HIV-1 protease of less than 1 nM. The IC50 with HIV-1 (strain IIIB) (setting [2]) was no more than 100 nM.
`CNC(=O)OCCC(C)(C)CN(CC(O)[C@H](Cc1ccccc1)NC(=O)OC1COC2OCCC12)S(=O)(=O)c1ccc(OC)cc1` (stereo partly drawn) [Compound 221, (3R,3aS,6aR)-Hexahydrofuro[2,3-b]furan-3-yl N-((1S,2R)-1-benzyl-3-(2,2-dimethyl-4-N′-methylcarbamoyloxybutyl)[(4-methoxyphenyl)sulfonyl]amino-2-hydroxypropyl)carbamate]: the Ki on HIV-1 protease (setting [1]) is less than 1 nM. For the same molecule, in the test with HIV-1 (strain IIIB) (setting [2]), the IC50 was no more than 100 nM.
With `COC(=N[N+](=O)[O-])NCCC(C)(C)CN(CC(O)C(Cc1ccccc1)NC(=O)OC1COC2OCCC12)S(=O)(=O)c1ccc(OC)cc1` (stereo not drawn) [Compound 223], the Ki at HIV-1 protease (setting [1]) is less than 1 nM. The IC50 with HIV-1 (strain IIIB) (setting [2]) was no more than 100 nM.
In the case of `CNC(=O)CNC(=O)NCCCC(C)(C)CN(CC(O)C(Cc1ccccc1)NC(=O)OC1COC2OCCC12)S(=O)(=O)c1ccc(OC)cc1` [Compound 225, (3R,3aS,6aR)hexahydrofuro[2,3-b]furan-3-yl N-(1S,2R)-1-benzyl-2-hydroxy-4-[(4-methoxyphenyl)sulfonyl]-6,6-dimethyl-11,14-dioxo-4,10,12,15-tetraazahexadec-1-ylcarbamate and (3S,3aR,6aS)hexahydrofuro[2,3-b]furan-3-yl N-(1S,2R)-1-benzyl-2-hydroxy-4-[(4-methoxyphenyl)sulfonyl]-6,6-dimethyl-11,14-dioxo-4,10,12,15-tetraazahexadec-1-ylcarbamate], on HIV-1 protease (setting [1]), the Ki was less than 1 nM. Besides, the half-inhibitory concentration (IC50) with HIV-1 (strain IIIB) (setting [2]) was greater than 1000 nM.
As for `CCOC(=O)NCCC(C)(C)CN(CC(O)C(Cc1ccccc1)NC(=O)OC1COC2OCCC12)S(=O)(=O)c1ccc(OC)cc1` [Compound 226, (3R,3aS,6aR)hexahydrofuro[2,3-b]furan-3-yl N-((1S,2R)-1-benzyl-3-4-[(ethoxycarbonyl)amino]-2,2-dimethylbutyl[(4-methoxyphenyl)sulfonyl]amino-2-hydroxypropyl)carbamate and (3S,3aR,6aS)hexahydrofuro[2,3-b]furan-3-yl N-((1S,2R)-1-benzyl-3-4-[(ethoxycarbonyl)amino)-2,2-dimethylbutyl[(4-methoxyphenyl)sulfonyl]amino-2-hydroxypropyl)carbamate], the inhibition constant Ki at HIV-1 protease (setting [1]) was less than 1 nM. For the same molecule, the IC50 in the test on HIV-1 (strain IIIB) (setting [2]) is no more than 100 nM.
